The record followed here is ChEMBL document CHEMBL1127978, “A new hydroxyethylamine class of HIV-1 protease inhibitors with high antiviral potency and oral bioavailability” (Bioorg Med Chem Lett, 1994).

The structures appear in SMILES notation.

Series [1] has as its target Human immunodeficiency virus type 1 protease (Human immunodeficiency virus 1, UniProt Q72874). The series is described as follows: In vitro inhibitory activity against HIV-1 protease was evaluated.
In series [2] the test system is Human immunodeficiency virus 1. The series is described as follows: Inhibition of viral spread in MT-4 human lymphoid cells infected with the HIV-IIIb isolate. Particulars: Human immunodeficiency virus 1, lymphoid; read-out: CIC95. The format is functional.
Series [3] in a line: Time taken for maximum plasma concentration in dog. It is filed as ADME, organism-based, Canis lupus familiaris.
The nature of series [4]: Maximum plasma concentration in dog. It is filed as ADME, organism-based, Canis lupus familiaris.
A short description of series [5]: Oral bioavailability in dog. The format is ADME, organism-based, Canis lupus familiaris. Particulars: in vivo.

In general, IC50 refers to the concentration needed to halve the response being measured. Consider `CC(C)(C)NC(=O)[C@@H]1CN(C(=O)OCc2ccccc2)CCN1C[C@H](O)[C@H](Cc1ccccc1)NC(=O)O[C@H]1CCOC1`, for which, in series [1], the IC50 was found to be 12000 nM. For the molecule `CC(C)(C)NC(=O)[C@@H]1CN(Cc2ccncc2)CCN1C[C@@H](O)[C@H](Cc1ccccc1)NC(=O)O[C@H]1CCOC1`, the IC95 in series [2] stood at 1500 nM. In series [1], this molecule registered an IC50 of 293 nM. Consider `CC(C)(C)NC(=O)[C@@H]1CN(C(=O)c2cccnc2)CCN1C[C@@H](O)[C@H](Cc1ccccc1)NC(=O)O[C@H]1CCOC1`, for which inhibition in series [1] was half-maximal at 371 nM (IC50). In turn, `CC(C)(C)NC(=O)[C@@H]1CN(C(=O)c2ccncc2)CCN1C[C@@H](O)[C@H](Cc1ccccc1)NC(=O)O[C@H]1CCOC1` came in with an IC50 in series [1] of 132 nM. Take `CC(C)[C@@H]1[C@H](OC(=O)N[C@@H](Cc2ccccc2)[C@H](O)CN2CCN(Cc3cc(Cl)cc(Cl)c3)C[C@H]2C(=O)NC(C)(C)C)CCS1(=O)=O`: in series [2], the IC95 was found to be 100 nM. `CC(C)(C)NC(=O)[C@@H]1CN(C(=O)OCc2ccccc2)CCN1C[C@@H](O)[C@H](Cc1ccccc1)NC(=O)O[C@H]1CCOC1`: 18.9 nM corresponded to half-maximal inhibition in series [1] (IC50). One may read the Tmax as the time at which the peak concentration occurs. Broadly, the Cmax is the highest concentration seen after dosing. Turning to `CC(C)[C@@H]1[C@H](OC(=O)N[C@@H](Cc2ccccc2)[C@H](O)CN2CCN(Cc3cccc(O)c3)C[C@H]2C(=O)NC(C)(C)C)CCS1(=O)=O`, the Tmax in series [3] is 25 min. In series [2], the IC95 is 100 nM. In addition, in series [4], the peak concentration (Cmax) amounted to 4 µM.

Turning to `CC(C)[C@@H]1[C@H](OC(=O)N[C@@H](Cc2ccccc2)[C@H](O)CN2CCN(Cc3ccc4ccccc4c3)C[C@H]2C(=O)NC(C)(C)C)CCS1(=O)=O`, the IC95 in series [2] was 50 nM. Take `CC(C)(C)NC(=O)[C@@H]1CN(Cc2cccnc2)CCN1C[C@@H](O)[C@H](Cc1ccccc1)NC(=O)O[C@H]1CCOC1`: the IC95 in series [2] was 1500 nM. Further, the half-inhibitory concentration (IC50) in series [1] was determined as 676 nM. The bioavailability is the share of a dose that reaches the circulation, judged against a reference dose that is usually intravenous. A high value points to good availability. As for `Cc1cc(CN2CCN(C[C@@H](O)[C@H](Cc3ccccc3)NC(=O)O[C@@H]3CCS(=O)(=O)[C@@H]3C(C)C)[C@H](C(=O)NC(C)(C)C)C2)cc(Cl)n1`, the bioavailability in series [5] worked out at 34.8%. Moreover, the IC95 in series [2] turned out to be 50 nM. On to `CC(C)[C@@H]1[C@H](OC(=O)N[C@@H](Cc2ccccc2)[C@H](O)CN2CCN(Cc3ccncc3)C[C@H]2C(=O)NC(C)(C)C)CCS1(=O)=O`, for which the IC95 in series [2] was determined as 200 nM. Also, in series [4], the Cmax worked out at 6.5 µM. In the case of `CC(C)(C)NC(=O)[C@@H]1CN(CCCc2ccccc2)CCN1C[C@@H](O)[C@H](Cc1ccccc1)NC(=O)O[C@H]1CCOC1`, in series [1], the IC50 is 175 nM. In turn, `CC(C)(C)NC(=O)[C@@H]1CN(CCc2ccccc2)CCN1C[C@@H](O)[C@H](Cc1ccccc1)NC(=O)O[C@H]1CCOC1` yielded an IC50 in series [1] of 478 nM. With `CC(C)(C)NC(=O)[C@@H]1CN(C(=O)c2ccccc2)CCN1C[C@@H](O)[C@H](Cc1ccccc1)NC(=O)O[C@H]1CCOC1`, the concentration for half-maximal inhibition (IC50) in series [1] came out at 414 nM. With `CC(C)(C)NC(=O)[C@@H]1CN(Cc2ccccn2)CCN1C[C@@H](O)[C@H](Cc1ccccc1)NC(=O)O[C@H]1CCOC1`, in series [1], the half-inhibitory concentration (IC50) is 957 nM. In series [1], `CC(C)(C)NC(=O)[C@@H]1CN(Cc2ccccc2)CCN1C[C@@H](O)[C@H](Cc1ccccc1)NC(=O)O[C@H]1CCOC1` came in with an IC50 of 102 nM. Same read-out and setting: in the case of `CC(C)(C)NC(=O)[C@@H]1CN(Cc2ccc(O)cc2)CCN1C[C@@H](O)[C@H](Cc1ccccc1)NC(=O)O[C@H]1CCOC1` it was 153 nM; in that of `CC(C)(C)NC(=O)[C@@H]1CN(Cc2ccccc2O)CCN1C[C@@H](O)[C@H](Cc1ccccc1)NC(=O)O[C@H]1CCOC1`, 102 nM. Turning to `CC(C)(C)NC(=O)[C@@H]1CN(Cc2cccc(O)c2)CCN1C[C@@H](O)[C@H](Cc1ccccc1)NC(=O)O[C@H]1CCOC1`, the IC95 in series [2] was 400 nM. In series [1], this molecule came in with an IC50 of 482 nM.

Take `Cc1ccc(CN2CCN(C[C@@H](O)[C@H](Cc3ccccc3)NC(=O)O[C@@H]3CCS(=O)(=O)[C@@H]3C(C)C)[C@H](C(=O)NC(C)(C)C)C2)cn1`: the IC95 in series [2] is 100 nM. As for `Cc1cc(C)cc(CN2CCN(C[C@@H](O)[C@H](Cc3ccccc3)NC(=O)O[C@@H]3CCS(=O)(=O)[C@@H]3C(C)C)[C@H](C(=O)NC(C)(C)C)C2)c1`, the IC95 in series [2] worked out at 100 nM. As to `CC(C)(C)NC(=O)[C@@H]1CN(C(=O)c2ccccn2)CCN1C[C@@H](O)[C@H](Cc1ccccc1)NC(=O)O[C@H]1CCOC1`, half-maximal inhibition in series [1] (IC50) required 257 nM.
